Like-named read-outs stand apart in the source and are kept apart here.
Columns and labels:
IGROV1 human EOC cells = experiment: Cell proliferation assay, IGROV1 cells; format: cell-based
Experimental: (§1) Results with BR-5 and BR-Luc cells were compared to those for IGROV1 human EOC cells (Table 1) in the absence and presence of excess folic acid (200 nM), which selectively blocks FR-mediated drug uptake without effects on RFC or PCFT^6. […] Further, inhibitions of the murine EOCs by all compounds approximated those for IGROV1 human EOC cells.
(§2) Cell proliferation assays were performed as described^6, 21. Cells were plated in 96-well dishes at densities ranging from 2500-5000 cells/well in 200 μL media and treated with a range of inhibitors spanning 0-1000 nM. Experiments used BR-5 and BR-Luc cells and folate-free RPMI 1640 media with 10% dialyzed FBS and 100 units/mL penicillin/100 μg/mL streptomycin, supplemented with 25 nM leucovorin and 2 mM L-glutamine. FR-mediated drug uptake was assessed in parallel incubations including 200 nM folic acid. Cells were treated over a 96 h period at 37° C. with 5% CO2 and relative cell numbers were quantified using the CellTiter-blue cell viability assay (Promega, Madison, WI) and a fluorescence plate reader^21. Raw data were exported to Excel for analysis and the results plotted using Graphpad Prism 6.0.

FRβ = FRβ (Homo sapiens, UniProt P14207); details: comparison of Table 3 values with PMX
[1] = tested on: BR-5 mouse HGSOC tumor cells; experiment: Cell proliferation assay (CellTiter-blue, 96 h), BR-5 cells; format: cell-based
Experimental: as §1, §2

[2] = tested on: BR-Luc mouse HGSOC tumor cells; experiment: Cell proliferation assay (CellTiter-blue, 96 h), BR-Luc cells; format: cell-based
Experimental: as §1, §2

Sequence of FRβ (P14207 17-230): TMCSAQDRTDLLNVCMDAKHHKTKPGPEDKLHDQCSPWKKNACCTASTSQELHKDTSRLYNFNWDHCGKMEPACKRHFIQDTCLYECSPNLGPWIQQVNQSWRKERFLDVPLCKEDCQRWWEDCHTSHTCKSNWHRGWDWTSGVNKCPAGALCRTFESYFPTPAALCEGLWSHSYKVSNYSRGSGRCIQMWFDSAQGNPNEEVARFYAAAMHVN

In the case of Nc1nc2[nH]c(CCCCc3csc(C(=O)N[C@@H](CCC(=O)O)C(=O)O)c3F)cc2c(=O)[nH]1 [AGF278], the IC50 (IGROV1 human EOC cells; Homo sapiens, IGROV-1, no folic acid, mean ± SE, read-out: IC50 anti-proliferative activity IGROV1, No addition) is reported as 1.9 ± 0.15 nM, the IC50 (IGROV1 human EOC cells; Homo sapiens, IGROV-1, read-out: IC50 anti-proliferative activity IGROV1, Folic Acid (200 nM), with 200 nM folic acid, mean ± SE) is reported as 426 ± 152 nM and the “Transport by folate receptor beta compared with pemetrexed (PMX)” value (“Transport … compared with pemetrexed (PMX)” below) (FRβ) is reported as “at least ten times better transported”. It also gave an IC50 ([1]; Mus musculus, no folic acid, mean ± SE, read-out: IC50 anti-proliferative activity BR-5, No addition) of 6.55 ± 3.24 nM, an IC50 ([1]; Mus musculus, read-out: IC50 anti-proliferative activity BR-5, Folic Acid (200 nM), with 200 nM folic acid, mean ± SE) of 547 ± 188 nM and an IC50 ([2]; Mus musculus, no folic acid, folate-free RPMI1640, 25 nM leucovorin, mean ± SE, read-out: IC50 anti-proliferative activity BR-Luc, No addition) of 6.06 ± 3.12 nM. It also gave an IC50 ([2]; Mus musculus, read-out: IC50 anti-proliferative activity BR-Luc, Folic Acid (200 nM), with 200 nM folic acid, mean ± SE) of 588 ± 162 nM.

N.N.[Cl][Pt][Cl] [Cisplatin, reference compound] was tested, and the IC50 (IGROV1 human EOC cells; no folic acid, mean ± SE, read-out: IC50 anti-proliferative activity IGROV1, No addition) was 857 ± 62.3 nM, the IC50 ([1]; no folic acid, mean ± SE, read-out: IC50 anti-proliferative activity BR-5, No addition) was 160 ± 110 nM and the IC50 ([2]; no folic acid, folate-free RPMI1640, 25 nM leucovorin, mean ± SE, read-out: IC50 anti-proliferative activity BR-Luc, No addition) was 290 ± 170 nM.

Nc1nc2[nH]c(CCCc3ccc(C(=O)N[C@@H](CCC(=O)O)C(=O)O)s3)cc2c(=O)[nH]1 [Compound 1] was tested, and the “Transport … compared with pemetrexed (PMX)” value (FRβ) was “at least ten times better transported”.

In the case of Nc1nc2[nH]c(CCCCc3ccc(C(=O)N[C@@H](CCC(=O)O)C(=O)O)cc3)cc2c(=O)[nH]1 [Compound 2], the “Transport … compared with pemetrexed (PMX)” value (FRβ) is reported as “at least ten times better transported”.

Nc1nc2[nH]c(CCCCc3ccc(C(=O)N[C@@H](CCC(=O)O)C(=O)O)nc3)cc2c(=O)[nH]1 [Compound 4] was tested, and the “Transport … compared with pemetrexed (PMX)” value (FRβ) was “at least ten times better transported”.

With Nc1nc2[nH]c(CCCCc3csc(C(=O)N[C@@H](CCC(=O)O)C(=O)O)c3)cc2c(=O)[nH]1 [Compound 5] the “Transport … compared with pemetrexed (PMX)” value (FRβ) was “at least ten times better transported”.

For Nc1nc2[nH]c(CCCCc3ccc(C(=O)N[C@@H](CCC(=O)O)C(=O)O)c(F)c3)cc2c(=O)[nH]1 [Compound 8], the “Transport … compared with pemetrexed (PMX)” value (FRβ) was “at least ten times better transported”.

For Nc1nc2[nH]c(CCCCc3cnc(C(=O)N[C@@H](CCC(=O)O)C(=O)O)c(F)c3)cc2c(=O)[nH]1 [Compound 10], the “Transport … compared with pemetrexed (PMX)” value (FRβ) was “at least ten times better transported”.
